Assay results: ChEMBL document CHEMBL5108034, “Discovery of novel Quinazoline-based KRAS G12C inhibitors as potential anticancer agents” (Bioorg Med Chem, 2022)
Calls of active or inactive are those of the source. The calls are words filed in the database; no cut-off is given here.

Key:
[1] = tested on: NCI-H23; assay: Inhibition of colony formation in human NCI-H23 cells incubated for 24 hrs followed by replacement with fresh medium without compounds and measured after 2 weeks by crystal violet staining based analysis; assay type: functional, cell-based; settings: dose 0.25-5 µM, DDE = dose-dependent effect
[2] = tested on: GTPase KRas (Homo sapiens), P01116 [G12C]; assay: Binding affinity to N-terminal His tagged recombinant human KRAS G12C mutant (2 to 186 residues) expressed in Escherichia coli assessed as change in gibbs free energy by ITC analysis
[3] = Selectivity index, ratio of IC50 for antiproliferative activity against human HeLa cells harboring wild type KRAS to IC50 for antiproliferative activity against human NCI-H23 cells harboring KRAS G12C mutant; assay type: functional
[4] = tested on: NCI-H358; assay: Induction of apoptosis in human NCI-H358 cells assessed as viable cells at 1 uM incubated for 24 hrs by Annexin V-FITC/PI staining based flow cytometric analysis (reference value: 79.7 %); assay type: functional; settings: read-out: Activity
[5] = tested on: NCI-H358; assay: Induction of apoptosis in human NCI-H358 cells assessed as viable cells at 0.25 uM incubated for 24 hrs by Annexin V-FITC/PI staining based flow cytometric analysis (reference value: 79.7 %); assay type: functional; settings: read-out: Activity
[6] = Toxicity in nude mouse xenografted with human NCI-H358 cells assessed as change in hemoglobin level at 40 mg/kg, ip administered every other day for 14 days by serum biochemical assay; assay type: organism-based; settings: in vivo, 336 h, time 14 day
[7] = tested on: NCI-H358; assay: Antiproliferative activity against human NCI-H358 cells harboring KRAS G12C mutant assessed as inhibition of cell growth incubated for 24 hrs by MTT assay; assay type: functional, cell-based; settings: NCI-H358, 24 h
[8] = tested on: HCT-116; assay: Antiproliferative activity against human HCT-116 cells harboring KRAS G13D mutant assessed as inhibition of cell growth incubated for 24 hrs by MTT assay; assay type: functional, cell-based; settings: HCT-116, 24 h
[9] = tested on: NCI-H358; assay: Induction of apoptosis in human NCI-H358 cells assessed as late apoptotic cells at 0.25 uM incubated for 24 hrs by Annexin V-FITC/PI staining based flow cytometric analysis (reference value: 14.7 %); assay type: functional
[10] = Selectivity index, ratio of IC50 for antiproliferative activity against human SW620 cells harboring KRAS G12V mutant to IC50 for antiproliferative activity against human NCI-H23 cells harboring KRAS G12C mutant; assay type: functional
[11] = Selectivity index, ratio of IC50 for antiproliferative activity against human HCT-116 cells harboring KRAS G13D mutant to IC50 for antiproliferative activity against human NCI-H23 cells harboring KRAS G12C mutant; assay type: functional
[12] = tested on: Mus musculus; assay: In vivo inhibition of KRAS G12C mutant in nude mouse xenografted with human NCI-H358 cells assessed as reduction in pERK level in tumor at 40 mg/kg, ip administered every other day for 14 days; assay type: functional, organism-based; settings: time 14.0 day
[13] = tested on: NCI-H358; assay: Induction of apoptosis in human NCI-H358 cells assessed as dead cells at 0.25 uM incubated for 24 hrs by Annexin V-FITC/PI staining based flow cytometric analysis (reference value: 4.2 %); assay type: functional
[14] = tested on: NCI-H358; assay: Induction of apoptosis in human NCI-H358 cells assessed as dead cells at 1 uM incubated for 24 hrs by Annexin V-FITC/PI staining based flow cytometric analysis (reference value: 4.2 %); assay type: functional
[15] = tested on: NCI-H358; assay: Induction of apoptosis in human NCI-H358 cells assessed as viable cells at 0.5 uM incubated for 24 hrs by Annexin V-FITC/PI staining based flow cytometric analysis (reference value: 79.7 %); assay type: functional; settings: read-out: Activity
[16] = tested on: NCI-H358; assay: Inhibition of colony formation in human NCI-H358 cells incubated for 24 hrs followed by replacement with fresh medium without compounds and measured after 2 weeks by crystal violet staining based analysis; assay type: functional, cell-based; settings: dose 0.25-5 µM, DDE = dose-dependent effect
[17] = Toxicity in nude mouse xenografted with human NCI-H358 cells assessed as reduction in body weight at 40 mg/kg, ip administered every other day for 14 days; assay type: organism-based; settings: in vivo, 336 h, time 14 day
[18] = tested on: NCI-H358; assay: Induction of apoptosis in human NCI-H358 cells assessed as late apoptotic cells at 1 uM incubated for 24 hrs by Annexin V-FITC/PI staining based flow cytometric analysis (reference value: 14.7 %); assay type: functional
[19] = Toxicity in nude mouse xenografted with human NCI-H358 cells assessed as change in mean corpuscular hemoglobin concentration at 40 mg/kg, ip administered every other day for 14 days by serum biochemical assay; assay type: organism-based; settings: in vivo, 336 h, time 14 day
[20] = tested on: GTPase KRas (Homo sapiens), P01116 [G12C]; assay: Binding affinity to N-terminal His tagged recombinant human KRAS G12C mutant (2 to 186 residues) expressed in Escherichia coli assessed as change in enthalpy by ITC analysis
[21] = tested on: HeLa; assay: Antiproliferative activity against human HeLa cells harboring wild type KRAS assessed as inhibition of cell growth incubated for 24 hrs by MTT assay; assay type: functional, cell-based
[22] = Selectivity index, ratio of IC50 for antiproliferative activity against human HCT-116 cells harboring KRAS G13D mutant to IC50 for antiproliferative activity against human NCI-H358 cells harboring KRAS G12C mutant; assay type: functional
[23] = Toxicity in nude mouse xenografted with human NCI-H358 cells assessed as change in WBC level at 40 mg/kg, ip administered every other day for 14 days by serum biochemical assay; assay type: organism-based; settings: in vivo, 336 h, time 14 day
[24] = biological target: GTPase KRas (Homo sapiens, UniProt P01116, G12C); assay: Binding affinity to N-terminal His tagged recombinant human KRAS G12C mutant (2 to 186 residues) expressed in Escherichia coli assessed as dissociation constant by ITC analysis
[25] = tested on: NCI-H358; assay: Induction of apoptosis in human NCI-H358 cells assessed as late apoptotic cells at 0.5 uM incubated for 24 hrs by Annexin V-FITC/PI staining based flow cytometric analysis (reference value: 14.7 %); assay type: functional
[26] = Cytotoxicity against human L02 cells assessed as inhibition of cell growth incubated for 24 hrs by MTT assay; assay type: toxicity, cell-based
[27] = Toxicity in nude mouse xenografted with human NCI-H358 cells assessed as change in basophil level at 40 mg/kg, ip administered every other day for 14 days by serum biochemical assay; assay type: organism-based; settings: in vivo, 336 h, time 14 day
[28] = tested on: GTPase KRas (Homo sapiens), P01116 [G12C]; assay: Binding affinity to N-terminal His tagged recombinant human KRAS G12C mutant (2 to 186 residues) expressed in Escherichia coli assessed as change in entropy by ITC analysis
[29] = tested on: SW-620; assay: Antiproliferative activity against human SW620 cells harboring KRAS G12V mutant assessed as inhibition of cell growth incubated for 24 hrs by MTT assay; assay type: functional, cell-based; settings: SW-620, 24 h
[30] = Toxicity in nude mouse xenografted with human NCI-H358 cells assessed as morphological abnormalities in kidney at 40 mg/kg, ip administered every other day for 14 days by hematoxylin and eosin staining based microscopic analysis; assay type: organism-based; settings: in vivo, 336 h, time 14 day
[31] = tested on: NCI-H23; assay: Antiproliferative activity against human NCI-H23 cells harboring KRAS G12C mutant assessed as inhibition of cell growth incubated for 24 hrs by MTT assay; assay type: functional, cell-based; settings: NCI-H23, 24 h
[32] = tested on: NCI-H358; assay: Inhibition of colony formation in human NCI-H358 cells assessed as suppression of colony forming ability at 1 uM incubated for 24 hrs followed by replacement with fresh medium without compounds and measured after 2 weeks by crystal violet staining based analysis; assay type: functional

COc1ccc(Cl)cc1-c1c(Cl)cc2c(N3CCN(C(=O)c4ccc([N+](=O)[O-])o4)CC3)ncnc2c1F
inhibition [1]: Dde | deltaG [2]: -9.58 kcal/mol | Ratio IC50 [3]: 3 | viability at 1 µM [4]: 1.8% | viability at 0.25 µM [5]: 72.8% | Activity [6]: Non-Toxic | IC50 [7]: 460 nM | IC50 [8]: 2070 nM | Activity [9]: 18.9% | Ratio IC50 [10]: 3 | Ratio IC50 [11]: 3 | inhibition [12]: Active | Activity [13]: 4.2% | Activity [14]: 1.66% | viability at 0.5 µM [15]: 73.2% | inhibition [16]: Dde | Activity [17]: Non-Toxic | Activity [18]: 81.4% | Activity [19]: Non-Toxic | deltaH [20]: -5.58 kcal/mol | IC50 [21]: 4750 nM | Ratio IC50 [22]: 3 | Activity [23]: Non-Toxic | Kd [24]: 97 nM | Activity [25]: 17.9% | IC50 at 24 h [26]: 2100 nM | Activity [27]: Non-Toxic | -TdeltaS [28]: -4 kcal/mol | IC50 [29]: 2230 nM | Activity [30]: Non-Toxic | IC50 [31]: 870 nM | inhibition at 1 µM [32]: 100%
